Results on 9 molecules are retold here after US20010038824A1, “Intranasal cyclic peptide formulations” (priority 2000, published 2001).

For one series, the system named is Candida albicans CY1002. Nature of the series: In vitro antifungal activity, broth micro-dilution. Conditions: YNB medium, 1-2 days at 35° C. It counts as cell-based. On the procedure:
(§1) The in vitro antifungal activities of the representative Aerothricins of the present study were evaluated by determining the 50% inhibitory concentration (IC50), which was calculated as the lowest concentration of an antifungal to inhibit the growth of fungus to […] turbidity compared with the drug-free control growth spectrophotometrically.
(§2) The IC50 values were determined by the broth micro-dilution procedure based on NCCLS Approved Standard with the following minor modifications (National Committee for Clinical Laboratory Standards. (1997) Reference method for broth dilution antifungal susceptibility testing for yeasts. Approved standard. Document M27-A). Yeast Nitrogen Base (YNB; Difco Lab.) supplemented with 1% glucose and 0.25% K2HPO4 was used as testing medium for yeast, the same medium solidified with 0.2% low melting point agarose (BRL) was used for filamentous fungi. Inoculum size was 1-3×10^4 cells/ml, and incubation was performed for 1-2 days at 35° C.
On the technique in general: Broth dilution looks for growth in wells or tubes with falling amounts of substance.

In series [1] the test system is Aspegillus fumigatus CF1003. Put plainly: In vitro antifungal activity, broth micro-dilution. It counts as cell-based. The settings on record: YNB medium with 0.2% agarose, 1-2 days at 35° C. The method, then: as §1, §2
The next series concerns Fusarium solani CF1088. Nature of the series: In vitro antifungal activity, broth micro-dilution. It counts as cell-based. The settings on record: YNB medium with 0.2% agarose, 1-2 days at 35° C. The method, then: as §1, §2
Series [2] can be described thus: Toxicity on administration to mice for 4 weeks. Conditions: 5 mg/kg and 30 mg/kg to mice for 4 weeks. It counts as in vivo.
A further series relates to Candida albicans. Put plainly: Murine systemic candidiasis. Conditions: i.v., b.i.d×1 day followed by q.d.×2 days; survival on day 14. It counts as in vivo, mice. The method, then: Mice of a conventional immunocompetent mouse strain, Crj: CD-1 (ICR) were used for experimental infection models of systemic candidiasis. 4 weeks old Crj: CD-1 (ICR) mice were used for systemic candidiasis by injecting Candida albicans 5×10^6 conidia/mouse via the tail vein. Treatments were given twice (0, 4 h after infection) on the first day and once daily on following 2 days for systemic candidiasis (b.i.d×1 day followed by q.d.×2 days), intravenously (i.v.). 50% of effective dose (ED50) values was calculated from the survival number at each dose on day 14.

Another series concerns mouse hepatocytes. Put plainly: In vitro hepatotoxicity test. It counts as cell-based. Conditions: mouse hepatocyte monolayers, 1 day exposure, morphological evaluation. The text has this: The mouse hepatocytes were isolated by a collagenase digestion and cultured in microtest plates. The hepatocyte monolayers were exposed to the test Aerothricins in the culture system for 1 day. After the culture period, the hepatocytes were observed under a microscope and evaluated morphologically. The degree of the morphological alteration (degeneration) of the hepatocytes by the test Aerothricins were compared with WF11243 and LY303366.

Numbered stars: 1 amine (or outer) side, 2 acyl side, 3 side chain; on linkers, the order of the positions; unused ones are H or OH. Bridge positions count the residues as written; N and C are the ends. Square brackets hold non-standard residues; d marks the D form. Peptide text beside a SMILES is read from it. * marks the point of attachment. ξ: configuration not given here. pTerphenylCO(4''-OnC5H11) = CCCCCOc1ccc(-c2ccc(-c3ccc(C(=O)*)cc3)cc2)cc1; Orn(4R-OH,5R-OH) = O=C([C@H](C[C@@H](O)[C@@H](O)N[*:3])N[*:1])[*:2]; X9 = O=C(C[C@@H](CCc1ccc(-c2ccc(OCCCc3ccccc3)cc2)cc1)N[*:2])[*:1]; hTyr(3S-OH,4S-OH) = N[C@H](C(=O)O)[C@H](O)[C@@H](O)c1ccc(O)cc1; X11 = CCCCCOc1ccc(-c2ccc(CC[C@H](CC(=O)[*:1])N[*:2])cc2)cc1; NαBis(2-aminoethyl)dOrn = NCCC[C@H](C(=O)*)N(CCN)CCN; X6 = NCCC[C@H](N)C(=O)N(CCCN)CCCC(N[*:1])C(=O)[*:2]; Pro(3S-OH,4S-Me) = C[C@H]1CN[C@H](C(=O)O)[C@H]1O; X7 = CCCCCCCCCCCCC(C)[C@H](CC(=O)[*:1])O[*:2]; X4 = CCCCCCCCCCCCC[C@H](CC(=O)[*:1])O[*:2]; X3 = NCCCN(CCCC(N[*:1])C(=O)[*:2])[*:3]; X2 = NC(=O)CC(O)C(N[*:1])C(=O)[*:2]; ξDopa = NC(Cc1ccc(O)c(O)c1)C(=O)O; Hyp = O=C(O)[C@@H]1C[C@@H](O)CN1; X1 = O=C(C1C(O)CCN1[*:1])[*:2]; ξY = NC(Cc1ccc(O)cc1)C(=O)O; ξHyp = O=C(O)C1CC(O)CN1; ξOrn = NCCCC(N)C(=O)O; ξT = CC(O)C(N)C(=O)O; ξV = CC(C)C(N)C(=O)O; ξA = CC(N)C(=O)O

On to `CCCCCCCCCCCCC(C)[C@@H]1CC(=O)NC(C(C)O)C(=O)NC(C)C(=O)NC(Cc2ccc(O)cc2)C(=O)NC(C(C)C)C(=O)N2CC(O)CC2C(=O)NC(C(C)O)C(=O)NC(C(C)O)C(=O)N2CCC(O)C2C(=O)NC(C(O)CC(N)=O)C(=O)NCC(=O)NC(C(C)O)C(=O)NC(CCCN)C(=O)O1` (stereo partly shown) [Aerothricin 1] ([ξT][ξA][ξY][ξV][ξHyp][ξT][ξT][X1][X2]G[ξT][ξOrn]; linker N-C via X7), for which, in the series with Candida albicans CY1002, the “In vitro Antifungal activity, IC50, Candida albicans CY1002” value was determined as 0.03 µg/mL. The “In vitro Antifungal activity, IC50, Aspegillus fumigatus CF1003” value in series [1] turned out to be 0.06 µg/mL. Besides, the “In vitro Antifungal activity, IC50, Fusarium solani CF1088” value with Fusarium solani CF1088 was 0.21 µg/mL. For the same molecule, the acute toxicity result in series [2] is on record as “no acute toxicity”. Besides, in the series “Solubility”, the Solubility entry is “Soluble: water, methanol, dimethylsulfoxide”.
On to `CCCCCCCCCCCCC[C@@H]1CC(=O)NC(C(C)O)C(=O)NC(C)C(=O)NC(Cc2ccc(O)c(O)c2)C(=O)NC(C(C)C)C(=O)N2CC(O)CC2C(=O)NC(C(C)O)C(=O)NC(C(C)O)C(=O)N2CCC(O)C2C(=O)NC(C(O)CC(N)=O)C(=O)NCC(=O)NC(C(C)O)C(=O)NC(CCCN)C(=O)O1` (stereo partly shown) [Aerothricin 2] ([ξT][ξA][ξDopa][ξV][ξHyp][ξT][ξT][X1][X2]G[ξT][ξOrn]; linker N-C via X4), for which the Solubility result in “Solubility” is recorded as “Soluble: water, methanol, dimethylsulfoxide”.
On to `CCCCCCCCCCCCC[C@@H]1CC(=O)NC(C(C)O)C(=O)NC(C)C(=O)NC(Cc2ccc(OC)cc2)C(=O)NC(C(C)C)C(=O)N2CC(O)CC2C(=O)NC(C(C)O)C(=O)NC(C(C)O)C(=O)N2CCC(O)C2C(=O)NC(C(O)CC(N)=O)C(=O)NCC(=O)NC(C(C)O)C(=O)NC(CCCN)C(=O)O1` (stereo partly shown) [Aerothricin 5] ([ξT][ξA][ξY](Me)[ξV][ξHyp][ξT][ξT][X1][X2]G[ξT][ξOrn]; linker N-C via X4), for which the “In vivo antifungal activity against systemic candidiasis in mice, ED50 on day 14” value (“In vivo antifungal activity” below) with Candida albicans is given as 0.3 mg/kg. For the same molecule, in the series on Candida albicans CY1002, the “In vitro Antifungal activity, IC50, Candida albicans CY1002” value worked out at 0.03 µg/mL. For the same molecule, in series [1], the “In vitro Antifungal activity, IC50, Aspegillus fumigatus CF1003” value was determined as 0.07 µg/mL. Also, the “In vitro Antifungal activity, IC50, Fusarium solani CF1088” value in the series on Fusarium solani CF1088 was 0.19 µg/mL.
For `CCCCCCCCCCOc1ccc(CC[C@@H]2CC(=O)NC(C(C)O)C(=O)NC(C)C(=O)NC(Cc3ccc(O)cc3)C(=O)NC(C(C)C)C(=O)N3CC(O)CC3C(=O)NC(C(C)O)C(=O)NC(C(C)O)C(=O)N3CCC(O)C3C(=O)NC(C(O)CC(N)=O)C(=O)NCC(=O)NC(C(C)O)C(=O)NC(CCCN)C(=O)N2)cc1` (stereo partly shown) [Aerothricin 36] the same measures were 0.6 mg/kg, 0.08 µg/mL, 0.05 µg/mL and 1.00 µg/mL.
On to `CCCCCOc1ccc(-c2ccc(CC[C@@H]3CC(=O)NC(C(C)O)C(=O)NC(C)C(=O)NC(Cc4ccc(O)cc4)C(=O)NC(C(C)C)C(=O)N4CC(O)CC4C(=O)NC(C(C)O)C(=O)NC(C(C)O)C(=O)N4CCC(O)C4C(=O)NC(C(O)CC(N)=O)C(=O)NCC(=O)NC(C(C)O)C(=O)NC(CCCN)C(=O)N3)cc2)cc1` (stereo partly shown) [Aerothricin 41] ([ξT][ξA][ξY][ξV][ξHyp][ξT][ξT][X1][X2]G[ξT][ξOrn]; linker N-C via X11), for which, in the series on Candida albicans, the “In vivo antifungal activity” value is given as 0.3 mg/kg. Besides, the “In vitro Antifungal activity, IC50, Candida albicans CY1002” value in the series on Candida albicans CY1002 was found to be 0.08 µg/mL. Also, the “In vitro Antifungal activity, IC50, Aspegillus fumigatus CF1003” value in series [1] was found to be 0.03 µg/mL. Also, the “In vitro Antifungal activity, IC50, Fusarium solani CF1088” value in the series on Fusarium solani CF1088 was found to be 2.40 µg/mL.
In the case of `CC1NC(=O)C(C(C)O)NC(=O)C[C@@H](CCc2ccc(-c3ccc(OCCCc4ccccc4)cc3)cc2)NC(=O)C(CCCN)NC(=O)C(C(C)O)NC(=O)CNC(=O)C(C(O)CC(N)=O)NC(=O)C2C(O)CCN2C(=O)C(C(C)O)NC(=O)C(C(C)O)NC(=O)C2CC(O)CN2C(=O)C(C(C)C)NC(=O)C(Cc2ccc(O)cc2)NC1=O` (stereo partly shown) [Aerothricin 46] ([ξT][ξA][ξY][ξV][ξHyp][ξT][ξT][X1][X2]G[ξT][ξOrn]; linker N-C via X9), the “In vivo antifungal activity” value in the series with Candida albicans is reported as 0.4 mg/kg. The “In vitro Antifungal activity, IC50, Candida albicans CY1002” value with Candida albicans CY1002 came to 0.09 µg/mL. For the same molecule, in series [1], the “In vitro Antifungal activity, IC50, Aspegillus fumigatus CF1003” value stood at 0.08 µg/mL. Besides, the “In vitro Antifungal activity, IC50, Fusarium solani CF1088” value in the series on Fusarium solani CF1088 worked out at 1.80 µg/mL.
As to `CCCCCCCCCCCCC[C@@H]1CC(=O)NC(C(C)O)C(=O)NC(C)C(=O)NC(Cc2ccc(O)cc2)C(=O)NC(C(C)C)C(=O)N2CC(O)CC2C(=O)NC(C(C)O)C(=O)NC(C(C)O)C(=O)N2CCC(O)C2C(=O)NC(C(O)CC(N)=O)C(=O)NCC(=O)NC(C(C)O)C(=O)NC(CCCN(CCCN)C(=O)[C@@H](N)CCCN)C(=O)O1` (stereo partly shown) [Aerothricin 132] ([ξT][ξA][ξY][ξV][ξHyp][ξT][ξT][X1][X2]G[ξT][X6]; linker N-C via X4), in the series with Candida albicans CY1002, the “In vitro Antifungal activity, IC50, Candida albicans CY1002” value stood at 0.30 µg/mL. Moreover, the “In vitro Antifungal activity, IC50, Aspegillus fumigatus CF1003” value in series [1] worked out at 0.10 µg/mL. Moreover, the “In vitro Antifungal activity, IC50, Fusarium solani CF1088” value in the series on Fusarium solani CF1088 was 0.19 µg/mL. This molecule also returned a Cytotoxicity to hepatocyte in the series with mouse hepatocytes above 100 µg/mL.
Consider `CCCCCCCCCCCCC[C@@H]1CC(=O)NC(C(C)O)C(=O)NC(C)C(=O)NC(Cc2ccc(O)cc2)C(=O)NC(C(C)C)C(=O)N2CC(O)CC2C(=O)NC(C(C)O)C(=O)NC(C(C)O)C(=O)N2CCC(O)C2C(=O)NC(C(O)CC(N)=O)C(=O)NCC(=O)NC(C(C)O)C(=O)NC(CCCN(CCCN)C(=O)[C@@H](CCCN)N(CCN)CCN)C(=O)O1` (stereo partly shown) [Aerothricin 135] ([ξT][ξA][ξY][ξV][ξHyp][ξT][ξT][X1][X2]G[ξT][X3](NαBis(2-aminoethyl)dOrn); linker N-C via X4), for which the Cytotoxicity to hepatocyte in the series on mouse hepatocytes is above 100 µg/mL.
On the same count and under the same terms, the figure for `CCCCCOc1ccc(-c2ccc(-c3ccc(C(=O)N[C@H]4C[C@@H](O)[C@@H](O)NC(=O)[C@@H]5[C@@H](O)[C@@H](C)CN5C(=O)[C@H]([C@@H](C)O)NC(=O)[C@H]([C@H](O)[C@@H](O)c5ccc(O)cc5)NC(=O)[C@@H]5C[C@@H](O)CN5C(=O)[C@H]([C@@H](C)O)NC4=O)cc3)cc2)cc1` [LY303366, reference compound] ({pTerphenylCO(4''-OnC5H11)}-[Orn(4R-OH,5R-OH)]T[Hyp][hTyr(3S-OH,4S-OH)]T[Pro(3S-OH,4S-Me)]; lactam 1-C) is 10 µg/mL.
